Results as given in ChEMBL document CHEMBL3507680, “University of Dundee, Gates Library screen for HepG2 cell viability”.

Experiment: Human HepG2 cell viability assay in 384 well format
Format: toxicity, cell-based
Parameters: dose 125 nL, time 70.5 hour; cytotoxicity at 70.5 h: concentration not given beside the values
Details: HepG2 cells, read-out: Inhibition

Structure (SMILES) | cytotoxicity at 70.5 h [%]
COCc1cn(C2CCN(CCC(C)c3ccccc3)CC2)nn1 (stereo not given) | -12.1
Cc1cc(C)n(CC(C)NC(=O)c2cc(C(C)C)on2)n1 (stereo not given) | -4.49
Cc1cc2nc(C(C)C)cc(NCCc3ccncc3)n2n1 | -13.2
CCNC(=O)[C@@H]1C[C@@H](NC(=O)c2ccsc2)CN1CCCSC | -3.62
O=C(O)c1cccc(CC2CCN(c3cnccn3)CC2)c1 | -2.92
CC(c1ccon1)N(C)C(=O)C1CCN(C(=O)C2CC2)CC1 (stereo not given) | -4.84
c1cncc(CN2CCc3ncnc(NCCc4c[nH]cn4)c3CC2)c1 | -1.46
CCN1CC2(CCC1=O)CCN(Cc1cc(F)ccc1Cl)CC2 | -0.396
CC(C)(N)c1cn(C2CCN(c3ncccc3Cl)CC2)nn1 | -9.17
CCc1cnc(NCCS(=O)(=O)CC(C)C)nc1 | 19.7
Cc1ccc(N2CCN(C(=O)[C@@H]3CCC(=O)N3)CC2=O)cc1 | -7.74
O=C(C1CCC1)N1CCN(Cc2ccc(F)cc2)[C@H]2CS(=O)(=O)C[C@H]21 | -3.17
c1ccc(CCc2n[nH]c(CCN3CCCCC3)n2)cc1 | -13.4
O=C(NCCc1c[nH]cn1)c1ccc(S(=O)(=O)NC2CCCC2)cc1 | -1.62
Cc1cc(C)cc(N2CCN(C(=O)CCN3C[C@@H]4CC[C@H]3C4)CC2=O)c1 | -11.2
CCC(C)N(Cc1ccncc1)Cc1ccccc1Cn1cccn1 (stereo not given) | -11.3
CN(Cc1nc(Cc2cccc(F)c2)no1)C1CCOCC1 | -13.9
CCO[C@H]1COC[C@@H]1NC(=O)CCc1nc(-c2ccccc2)no1 | -8.01
CS(=O)(=O)N1CCC(c2nccn2Cc2ccccn2)CC1 | -5.19
C=C1C(C)(C)[C@H]2CC[C@]1(C(=O)N1CCC(Cn3cc(CO)nn3)CC1)C2 | 26.1
O=C(CN1CCOc2ccccc2C1)N1Cc2cnn(CCO)c2C1 | -0.755
CC(O)C(=O)N1CCC(c2[nH]ncc2-c2ccccc2)CC1 (stereo not given) | 20.2
CCN(CC)CCN(C)Cc1cn(C)nc1-c1ccc2c(c1)OCCO2 | 23.5
Cc1n[nH]c(C)c1CCN(C)c1ccc(-c2nc(C3CC3)no2)cn1 | 4.49
Cc1cc(N2CCC(c3ncc[nH]3)CC2)cc(C)n1 | -3.01
CC(C)S(=O)(=O)N1CCCC(c2nccn2Cc2cccnc2)C1 (stereo not given) | -8.01
Cn1ccnc1CNc1nccc(-c2ncnn2C)n1 | -14.8
Cc1ccc(C(C(=O)NCCc2nc(C)cc(=O)[nH]2)N(C)C)cc1 (stereo not given) | 7.05

Structure (SMILES) | cytotoxicity at 70.5 h [%]
Cn1cc(C2=CCN(CCCC(=O)Nc3ccc(C#N)cc3)CC2)cn1 | 18.4
Cc1nc2c(C(=O)O)cccc2n1-c1ccc(C(=O)N2CCCC2)o1 | 7.08
CCn1nc(C)c(CNC(=O)C2COc3ccccc3C2)c1C (stereo not given) | -8.01
NC(=O)[C@H]1CCCN1C(=O)c1csc(-c2ccc(C(F)(F)F)cc2)n1 | -6.09
Cc1ccc(-c2ccnc(N(C)CC3CCCN3C)n2)c(C)n1 (stereo not given) | 16.3
Cc1cc(F)ccc1C(=O)N1CCN(C)C2(CCC(=O)N(C)CC2)C1 (stereo not given) | -9.21
CCc1ccc(CN(Cc2ccccc2)CC(C)CO)nc1 (stereo not given) | -6.55
c1ccc(C2CCCCN2Cc2nc(-c3cnccn3)no2)nc1 (stereo not given) | -1.69
O=C(NCCC1=CCCCC1)c1cc(-c2ccc(O)cc2)n[nH]1 | -1.77
CCN1CCN(C(=O)c2ccc3c(c2)OCC(=O)N3)[C@H]2CS(=O)(=O)C[C@H]21 | -12.3
Cc1cc(C)c(C(=O)N2CCCC(O)(CN3CCCC3)C2)cc1C (stereo not given) | -4.19
CC(=O)NCCc1ncnn1-c1ccc(F)c(Cl)c1 | 7.55
Cc1nn(C)c(C)c1CN1CCCC(c2ccc(C(=O)O)cc2)C1 (stereo not given) | -3.35
Cc1nc[nH]c1C(=O)N1CCCC2(C1)C(=O)N(C)c1ccccc12 (stereo not given) | -3.87
COc1cccc(CN2CCN(c3cccc(C(C)C)n3)CC2)c1F | -0.272
CC(C)[C@H]1CN(Cc2nccn2C)C[C@@H]1NC(=O)COCC(N)=O | -9.51
NCC1Cc2cc(-c3nccc(N4CCC(O)CC4)n3)cc(Cl)c2O1 (stereo not given) | 5.41
CCN(Cc1nc(COC)no1)C(=O)CCn1c(C)cc2ccccc21 | -0.00353
CCC[C@@H]1CN(Cc2ccc(N(C)C)nc2)C[C@H]1N(C)C | -9.01
Cc1cc(CC(C)Nc2ncnc3cccc(F)c23)[nH]n1 (stereo not given) | 2.32
O=C(NCCc1noc(C2CCCC2)n1)c1cn2ccsc2n1 | -6.72
Nc1nc2c(c(NCc3ccncc3)n1)CCCC2 | 0.39
COc1ccc2c(c1)OCC(CNC(=O)c1ccc3[nH]nnc3c1)C2 (stereo not given) | -9.44
Cc1n[nH]c(C)c1CC(=O)N1CCC2(CC1)CN(C)CCN2C | 23.4
CCN1CC(C(=O)NCCCc2nc(C)c(C)s2)CC1=O (stereo not given) | -9.75
Cc1nc2c(c(N3CC=CC3)n1)CCN(c1ncccc1C(N)=O)CC2 | -2.97
COCc1cc(N2CCN(C3CCCCC3)CC2)n2nccc2n1 | -4.81
